Measured values: US20180200257A1, “METHODS FOR THE TREATMENT OF INFLAMMATORY DISORDERS” (Galapagos NV, priority 2015, published 2018)

Test system: Subjects With Active Crohn's Disease With Evidence of Mucosal Ulceration
Test: Study 3 - SES-CD endoscopic scores
Assay type: in vivo, human
Settings: 200 mg, LOCF; for Deep remission (CDAI score < 150 points, SES-CD score ≤ 4, ulcerated subscore ≤ 1 in all 5 segments) / Endoscopic remission (SES-CD % improvement ≤ 4, ulcerated subscore ≤ 1 in all 5 segments) / Endoscopic response (SES-CD % improvement ≥ 50) / Mucosal healing (SES-CD % = 0): 10 weeks
From the text: Double-Blind, Randomized, Placebo-Controlled, Multi-Centre Study to Investigate the Efficacy and Safety of Compound 1 in Subjects With Active Crohn's Disease With Evidence of Mucosal Ulceration. This is a double-blind, randomized, placebo-controlled, multi-centre Phase 2 study to investigate the efficacy and safety of Compound 1 administered once daily for the treatment of active CD with evidence of mucosal ulceration. The pharmacokinetics (including a PK substudy) and pharmacodynamics of Compound 1 and metabolite in CD will also be characterised. A total of 180 eligible subjects will be randomized to receive Compound 1 or placebo in addition to their stable background treatment (eg, corticosteroids, aminosalicylates, or CD-related antibiotics). The study will consist of 2 parts, with total treatment duration of 20 weeks. Randomization in Part 1 will be stratified according the subject's previous anti-TNF exposure/response, CRP level at Screening, and oral corticosteroid use at visit Day −1. After the first 10 weeks of treatment in Part 1, patients will be re-randomized for Part 2 as shown in the diagram below and will be stratified according to the subject's clinical response, previous anti-TNF exposure/response, and oral corticosteroid use at visit Day -1. [table] For the evaluation of disease severity the Crohn's Disease Index of Severity (CDEIS), and the Simple Endoscopic Score for Crohn's Disease (SES-CD) may be used. These are validated scores for the measurement of endoscopic findings, (Sipponen et al, 2010). For the SES-CD, four endoscopic variables in the five segments are scored from 0-3: Variable “presence and size of ulcers” is scored 0 when no ulcers are present, small ulcers (diameter 0.1-0.5 cm) are scored 1, medium-sized ulcers (diameter 0.5-2 cm) 2, and large ulcers (>2 cm) 3. Variable “extent of ulcerated surface” is scored 0 when no ulcers were present, 1 when extent was <10%, 2 when extent is 10%-30%, and 3 when it is >30%. The variable extent of affected surface is scored 0 if none, 1 when <50%, 2 when 50%-75%, and 3 when >75%. The presence and type of narrowings is scored 0 when no narrowings are present, a single passable narrowing is scored 1, multiple passable narrowings are scored 2, and a nonpassable narrowing is scored 3.

[1] = Anti-TNF experienced non-responders
[2] = baseline corticosteroid use: with steroids
[3] = baseline corticosteroid use: without steroids

## O=C(Nc1nc2cccc(-c3ccc(CN4CCS(=O)(=O)CC4)cc3)n2n1)C1CC1 [Compound 1, cyclopropanecarboxylic acid {5-[4-(1,1-dioxo-thiomorpholin-4-ylmethyl)-phenyl]-[1,2,4]triazolo[1,5-a]pyridin-2-yl}-amide]
Anti-TNF Naïve
  Deep remission (CDAI score < 150 points, SES-CD score ≤ 4, ulcerated subscore ≤ 1 in all 5 segments): 0%
  Endoscopic remission (SES-CD % improvement ≤ 4, ulcerated subscore ≤ 1 in all 5 segments): 16%
  Endoscopic response (SES-CD % improvement ≥ 50): 28%
  Mucosal healing (SES-CD % = 0): 0%
[1]
  Deep remission (CDAI score < 150 points, SES-CD score ≤ 4, ulcerated subscore ≤ 1 in all 5 segments): 6%
  Endoscopic remission (SES-CD % improvement ≤ 4, ulcerated subscore ≤ 1 in all 5 segments): 12%
  Endoscopic response (SES-CD % improvement ≥ 50): 23%
  Mucosal healing (SES-CD % = 0): 1%
[2]
  Deep remission (CDAI score < 150 points, SES-CD score ≤ 4, ulcerated subscore ≤ 1 in all 5 segments): 0%
  Endoscopic remission (SES-CD % improvement ≤ 4, ulcerated subscore ≤ 1 in all 5 segments): 12%
  Endoscopic response (SES-CD % improvement ≥ 50): 22%
  Mucosal healing (SES-CD % = 0): 0%
[3]
  Deep remission (CDAI score < 150 points, SES-CD score ≤ 4, ulcerated subscore ≤ 1 in all 5 segments): 5%
  Endoscopic remission (SES-CD % improvement ≤ 4, ulcerated subscore ≤ 1 in all 5 segments): 15%
  Endoscopic response (SES-CD % improvement ≥ 50): 28%
  Mucosal healing (SES-CD % = 0): 5%
overall
  Deep remission (CDAI score < 150 points, SES-CD score ≤ 4, ulcerated subscore ≤ 1 in all 5 segments): 8%
  Endoscopic remission (SES-CD % improvement ≤ 4, ulcerated subscore ≤ 1 in all 5 segments): 14%
  Endoscopic response (SES-CD % improvement ≥ 50): 25%
  Mucosal healing (SES-CD % = 0): 2%
Screening CRP ≤ 10 ml/L
  Deep remission (CDAI score < 150 points, SES-CD score ≤ 4, ulcerated subscore ≤ 1 in all 5 segments): 10%
  Endoscopic remission (SES-CD % improvement ≤ 4, ulcerated subscore ≤ 1 in all 5 segments): 16%
  Endoscopic response (SES-CD % improvement ≥ 50): 23%
  Mucosal healing (SES-CD % = 0): 3%
Screening CRP ≥ 10 mg/L
  Deep remission (CDAI score < 150 points, SES-CD score ≤ 4, ulcerated subscore ≤ 1 in all 5 segments): 0%
  Endoscopic remission (SES-CD % improvement ≤ 4, ulcerated subscore ≤ 1 in all 5 segments): 0%
  Endoscopic response (SES-CD % improvement ≥ 50): 28%
  Mucosal healing (SES-CD % = 0): 0%
Baseline
  SES-CD mean, baseline: 14.2
Week 10
  SES-CD mean CFB, W 10: −2.6
  SES-CD mean, W 10: 11.6
